Experiments:
[1] = tested on: mushroom tyrosinase; assay: Tyrosinase inhibition assay; type: biochemical; settings: for tyrosinase enzyme inhibition versus kojic acid: even at high concentrations (5%)
Protocol: Rosamox (0.1%, 0.05% and 0.01%), Lysofix dry (0.1%, 0.05% & 0.01%) and Chinese lantern oil (0.1%, 0.05%, 0.01% & 0.005%) were tested for inhibition of tyrosinase enzyme activity. Kojic acid (2%, 1% & 0.5%), β-arbutin (5%, 2%, 1% & 0.5%) and hydroquinone (5%, 2%, 1% & 0.5%) served as positive controls in this study. Rosamox and Chinese lantern oil samples were prepared in Dimethylsulfoxide (DMSO). Lysofix sample, positive controls, 3,4-dihydroxyphenyl-alanine (L-DOPA) and mushroom tyrosinase were prepared using 0.1 M phosphate buffer (pH-6.6).
Tyrosinase inhibition potential of natural ingredients was measured using a modified method published previously by Uchida et al^12. Briefly, the test samples or positive control (20 μL) were added to the reaction mixture containing 0.12 mL of 0.1 M potassium phosphate buffer (pH 6.6) in 96 well microplates and incubated at room temperature for 2 minutes. After 2 minutes of incubation, 40 μL of 10 mM L-DOPA solution was added to the reaction mixture and incubated for 5 minutes at 37° C. using a benchtop incubator (Fisher scientific, PA). Twenty microliters of mushroom tyrosinase (200 units/mL) was added to the above reaction mixture and incubated at 37° C. in a conventional lab incubator (Fisher Scientific, PA) for 10 minutes. The amount of dopachrome produced in the reaction mixture was measured spectrophotometrically using Spectramax Me5 plate reader at 475 nm. The tyrosinase activity and the % inhibition of tyrosinase in presence of test material were calculated as follows:
Tyrosinase activity=(S(Abs)−B(Abs))/C(Abs)×100
Inhibition (%)=1−{(S(Abs)−B(Abs))}/C(Abs)×100 Equation 1. • Formula for Measuring tyrosinase activity and % tyrosinase inhibition, where S(Abs)—sample absorbance; B(Abs)—Blank absorbance (Without enzyme) and C(Abs)—Control Absorbance [Buffer and DMSO].

[2] = tested on: melanocyte-keratinocyte co-culture (HEK001 keratinocytes and primary epidermal melanocytes); assay: Melanin inhibition in melanocyte-keratinocyte co-culture; type: cell-based, human
Protocol: Cell culture studies were performed using Human Epidermal Keratinocytes (HEK) continuous cell lines [HEK001 (ATCC® CRL-2404™) lot #61331463] and Primary epidermal melanocytes (ATCC PCS-200-013, lot #60948598). HEK cells were grown in the HEK growth media consisting of keratinocytes serum free medium (GIBCO-BRL 17005042, lot #1638561) with 5 ng/mL human recombinant epidermal growth factor (EGF) (ATCC, lot #1584416) and 2 mM L-glutamine (ATCC, lot #62195752) (without bovine pituitary extract and serum). HEK growth media was supplemented with penicillin (10000 units) and streptomycin (10 mg/mL) solution (Gibco, lot #1469707). Primary epidermal melanocytes growth media consisting of Dermal cell basal medium (ATCC PCS-200-030) with Melanocytes Growth kit [ATCC PCS-200-042] (rh Insulin 5 μg/mL, Ascorbic acid 50 μg/mL, L-glutamine 6 mM, Epinephrine calcium chloride 1.5 μM peptide growth factor and M8 supplement) and supplemented with penicillin (10 units/mL)-streptomycin (10 μg/mL)-Amphotericin B solution (25 ng/mL). […]
HEK cells were harvested by treatment with trypsin/EDTA solution and resuspended in HEK media. Viable cells were determined by trypan blue exclusion study and counted using a hemocytometer. […]

[3] = tested on: MelanoDerm tissue; assay: Microscopic observation of MelanoDerm tissue; type: cell-based, human; settings: end of 21 days
Protocol: For visualization of treatment effect on tissue culture, microscopic observation of MelanoDerm tissue on day 1, 4, 10, 14 and finally on day 21 was carried out using glass bottom microwell dish with the help of benchtop inverted microscope (Nikon Inc., NY) at 20× magnification. Images were captured using Tucsen camera (Xintu Photonics Co., China) attached to the microscope.

[4] = tested on: murine melanoma cell model; settings: cited from earlier work

With `O=c1cc(CO)occ1O` [kojic acid, Kojic acid] the “tyrosinase enzyme inhibition compared to control” value ([1]; all concentrations (0.5%, 1% and 2%)) was “effective in inhibiting tyrosinase enzyme”, the “melanin production compared to control” value ([2]; 2% (highest tested concentration), p<0.005) was “maximum effect” and the “melanin production compared to control” value ([2]; tested concentrations (2%, 1%, 0.5%), 5 days treatment) was “significant reduction in melanin production”. The “melanin granules in microscopic images” value ([3]; 0.5%) was “presence of some melanin granules” and the “melanin granules in microscopic images” value ([3]; 1% and 2%) was “no sign of melanin granules”.
With `Oc1ccc(O)cc1` [Hydroquinone, hydroquinone] the “tyrosinase enzyme inhibition versus kojic acid” value [1] was “not as effective as kojic acid”.
In the case of `OC[C@H]1O[C@@H](Oc2ccc(O)cc2)[C@H](O)[C@@H](O)[C@@H]1O` [β-arbutin], the “tyrosinase enzyme inhibition versus kojic acid” value [1] is reported as “not as effective as kojic acid”.
In the case of `CCCCC/C=C\C/C=C\CCCCCCCC(=O)O` [Linoleic acid], the “reduction of melanogenesis and amount of tyrosinase protein” value [4] is given as “effective in reduction of melanogenesis”.

From US20190209454A9, “DETERMINATION OF MELANIN INHIBITION POTENTIAL OF NATURAL INGREDIENTS” (Kemin Industries, Inc., priority 2016, published 2019)
